{
  "source": "patent US20050074879A1",
  "about": "“Antisense oligonucleotide modulation of STAT3 expression” (priority 2000, published 2005)",
  "note": "Oligonucleotides are written 5' to 3', each unit as a sugar letter and its base; * is a phosphorothioate linkage, no mark a phosphodiester; rarer units and linkages stand in square brackets, end groups in braces. Plain capitals give the bases only. e = 2'-O-(2-methoxyethyl) (MOE); [5mC] = 5-methylcytosine; d = 2'-deoxy (DNA)",
  "data": [
    {"test_system": "Human STAT3 mRNA", "assay": "Inhibition of human STAT3 mRNA levels in A549 cells, 75 nM, real-time PCR (Table 13)", "type": "cell-based", "conditions": "75 nM oligonucleotide with LIPOFECTIN, real-time PCR PPS 199, percent inhibition relative to untreated control cells, average of 2 experiments", "procedure": "Oligonucleotide activity is assayed by quantitation of STAT3 mRNA levels by real-time PCR (RT-PCR) using the ABI PRISMS 7700 Sequence Detection System (PE-Applied Biosystems, Foster City, Calif.) according to manufacturer's instructions. This is a closed-tube, non-gel-based, fluorescence detection system which allows high-throughput quantitation of polymerase chain reaction (PCR) products in real-time. As opposed to standard PCR, in which amplification products are quantitated after the PCR is completed, products in RT-PCR are quantitated as they accumulate. This is accomplished by including in the PCR reaction an oligonucleotide probe that anneals specifically between the forward and reverse PCR primers, and contains two fluorescent dyes. A reporter dye (e.g., JOE or FAM, PE-Applied Biosystems, Foster City, Calif.) is attached to the 5′ end of the probe and a quencher dye (e.g., TAMRA, PE-Applied Biosystems, Foster City, Calif.) is attached to the 3′ end of the probe. When the probe and dyes are intact, reporter dye emission is quenched by the proximity of the 3′ quencher dye. During amplification, annealing of the probe to the target sequence creates a substrate that can be cleaved by the 5′-exonuclease activity of Taq polymerase. […] With each cycle, additional reporter dye molecules are cleaved from their respective probes, and the fluorescence intensity is monitored at regular (six-second) intervals by laser optics built into the ABI PRISM™ 7700 Sequence Detection System. In each assay, a series of parallel reactions containing serial dilutions of mRNA from untreated control samples generates a standard curve that is used to quantitate the percent inhibition after antisense oligonucleotide treatment of test samples.\nRT-PCR reagents are obtained from PE-Applied Biosystems, Foster City, Calif. RT-PCR reactions are carried out by adding 25 l PCR cocktail (1× TAQMAN7 buffer A, 5.5 mM MgCl2, 300 µM each of DATP, dCTP and dGTP, 600 µM of dUTP, 100 nM each of forward primer, reverse primer, and probe, 20 U RNAse inhibitor, 1.25 units AMPLITAQ GOLD7, and 12.5 U MuLV reverse transcriptase) to 96 well plates containing 25 l poly(A) mRNA solution. The RT reaction is carried out by incubation for 30 minutes at 48° C. following a 10 minute incubation at 95° C. to activate the AMPLITAQ GOLD7, 40 cycles of a two-step PCR protocol are carried out: 95° C. for 15 seconds (denaturation) followed by 60° C. for 1.5 minutes (annealing/extension).\nThe compounds were analyzed for their effect on STAT3 mRNA levels in A549 cells. The human lung carcinoma cell line A549 was obtained from the American Type Culture Collection (ATCC) (Manassas, Va.). A549 cells were routinely cultured in DMEM basal media (Invitrogen Corporation, Carlsbad, Calif.) supplemented with 10% fetal calf serum (Invitrogen Corporation, Carlsbad, Calif.), 100 units/mL penicillin, and 100 ug/mL streptomycin (Invitrogen Corporation, Carlsbad, Calif.). Cells were routinely passaged by trypsinization and dilution when they reached 90% confluence.\nWhen cells reached 65-75% confluency, they were treated with oligonucleotide. For cells grown in 96-well plates, wells were washed once with […] OPTI-MEM-1 reduced-serum medium (Invitrogen Corporation, Carlsbad, Calif.) and then treated with 130 µL of OPTI-MEM-1 containing […] LIPOFECTIN (Invitrogen Corporation, Carlsbad, Calif.) and 75 nM of the compounds in Table 13. Cells were treated and data were obtained in duplicate. Untreated cells served as controls. After 4-7 hours of treatment at 37° C., the medium was replaced with fresh medium. Cells were harvested 16-24 hours after oligonucleotide treatment. STAT3 mRNA levels in A549 cells were quantitated by real-time PCR as described by other methods herein.\nProbes and primers to human STAT3 were designed to hybridize to a human STAT3 sequence, using published sequence information (incorporated herein as SEQ ID NO: 1). For STAT 3 the PCR primers were: • forward primer: […]", "units": {"% Inhib (inhibition of human STAT 3 mRNA levels)": "%"}, "values": [
      {"substance": "337281 (antisense eG*eG*eG*eT*eT*dT*dT*dA*dT*dA*dG*dT*dT*dG*dA*eA*eA*eT*e[5mC]*eA) [compound 337281]", "% Inhib (inhibition of human STAT 3 mRNA levels)": 16},
      {"substance": "337282 (antisense e[5mC]*eT*eT*eG*eA*dG*dG*dG*dT*dT*dT*dT*dA*dT*dA*eG*eT*eT*eG*eA) [compound 337282]", "% Inhib (inhibition of human STAT 3 mRNA levels)": 58},
      {"substance": "337283 (antisense eT*eG*eA*e[5mC]*eT*d[5mC]*dT*dT*dG*dA*dG*dG*dG*dT*dT*eT*eT*eA*eT*eA) [compound 337283]", "% Inhib (inhibition of human STAT 3 mRNA levels)": 71},
      {"substance": "337285 (antisense e[5mC]*eA*eT*eG*eT*d[5mC]*dT*d[5mC]*d[5mC]*dT*dT*dG*dA*d[5mC]*dT*e[5mC]*eT*eT*eG*eA) [compound 337285]", "% Inhib (inhibition of human STAT 3 mRNA levels)": 78},
      {"substance": "337286 (antisense eA*eT*eT*e[5mC]*eA*dG*dA*dT*d[5mC]*dT*dT*dG*d[5mC]*dA*dT*eG*eT*e[5mC]*eT*e[5mC]) [compound 337286]", "% Inhib (inhibition of human STAT 3 mRNA levels)": 77},
      {"substance": "337287 (antisense eT*eG*eG*eT*eT*dG*dT*dT*dT*d[5mC]*d[5mC]*dA*dT*dT*d[5mC]*eA*eG*eA*eT*e[5mC]) [compound 337287]", "% Inhib (inhibition of human STAT 3 mRNA levels)": 82},
      {"substance": "337288 (antisense eT*eG*eG*eT*e[5mC]*dA*d[5mC]*dT*dG*dA*d[5mC]*dT*dG*dG*dT*eT*eG*eT*eT*eT) [compound 337288]", "% Inhib (inhibition of human STAT 3 mRNA levels)": 84},
      {"substance": "337289 (antisense eT*e[5mC]*e[5mC]*eA*eG*d[5mC]*dT*dG*d[5mC]*dT*dG*d[5mC]*dA*dT*d[5mC]*eT*eT*e[5mC]*eT*eG) [compound 337289]", "% Inhib (inhibition of human STAT 3 mRNA levels)": 83},
      {"substance": "337290 (antisense eG*eA*eG*e[5mC]*eA*dT*d[5mC]*dT*dG*dT*dT*d[5mC]*d[5mC]*dA*dG*e[5mC]*eT*eG*e[5mC]*eT) [compound 337290]", "% Inhib (inhibition of human STAT 3 mRNA levels)": 80},
      {"substance": "337291 (antisense e[5mC]*eT*eT*e[5mC]*eT*d[5mC]*d[5mC]*dG*d[5mC]*dA*dT*d[5mC]*dT*dG*dG*eT*e[5mC]*e[5mC]*eA*eG) [compound 337291]", "% Inhib (inhibition of human STAT 3 mRNA levels)": 66},
      {"substance": "337292 (antisense eT*eT*e[5mC]*eT*eG*d[5mC]*dA*d[5mC]*dG*dT*dA*d[5mC]*dT*d[5mC]*d[5mC]*eA*eT*e[5mC]*eG*e[5mC]) [compound 337292]", "% Inhib (inhibition of human STAT 3 mRNA levels)": 81},
      {"substance": "337294 (antisense e[5mC]*eT*e[5mC]*eT*eT*d[5mC]*d[5mC]*dA*dG*dT*d[5mC]*dA*dG*d[5mC]*d[5mC]*eA*eG*e[5mC]*eT*e[5mC]) [compound 337294]", "% Inhib (inhibition of human STAT 3 mRNA levels)": 75},
      {"substance": "337295 (antisense eT*eG*e[5mC]*e[5mC]*eG*d[5mC]*d[5mC]*dT*d[5mC]*dT*dT*d[5mC]*d[5mC]*dA*dG*eT*e[5mC]*eA*eG*e[5mC]) [compound 337295]", "% Inhib (inhibition of human STAT 3 mRNA levels)": 82},
      {"substance": "337296 (antisense e[5mC]*e[5mC]*eA*eG*eT*dT*dT*dT*d[5mC]*dT*dA*dG*d[5mC]*d[5mC]*dG*eA*eT*e[5mC]*eT*eA) [compound 337296]", "% Inhib (inhibition of human STAT 3 mRNA levels)": 80},
      {"substance": "337297 (antisense eA*e[5mC]*eG*eT*eT*dA*dT*d[5mC]*d[5mC]*dA*dG*dT*dT*dT*dT*e[5mC]*eT*eA*eG*e[5mC]) [compound 337297]", "% Inhib (inhibition of human STAT 3 mRNA levels)": 72},
      {"substance": "337298 (antisense eA*eG*eT*eT*eG*dA*dG*dA*dT*dT*d[5mC]*dT*dG*d[5mC]*dT*eA*eA*eT*eG*eA) [compound 337298]", "% Inhib (inhibition of human STAT 3 mRNA levels)": 74},
      {"substance": "337299 (antisense eT*e[5mC]*eT*eG*eA*dA*dG*dT*dT*dG*dA*dG*dA*dT*dT*e[5mC]*eT*eG*e[5mC]*eT) [compound 337299]", "% Inhib (inhibition of human STAT 3 mRNA levels)": 80},
      {"substance": "337300 (antisense e[5mC]*e[5mC]*eT*eT*eT*dG*dT*dA*dG*dG*dA*dA*dA*d[5mC]*dT*eT*eT*eT*eT*eG) [compound 337300]", "% Inhib (inhibition of human STAT 3 mRNA levels)": 23},
      {"substance": "337301 (antisense eA*eG*eG*e[5mC]*eA*d[5mC]*dT*dT*dT*dT*d[5mC]*dA*dT*dT*dA*eA*eG*eT*eT*eT) [compound 337301]", "% Inhib (inhibition of human STAT 3 mRNA levels)": 73},
      {"substance": "337302 (antisense eT*eT*eG*eA*e[5mC]*d[5mC]*dA*dG*d[5mC]*dA*dA*d[5mC]*d[5mC]*dT*dG*eA*e[5mC]*eT*eT*eT) [compound 337302]", "% Inhib (inhibition of human STAT 3 mRNA levels)": 61},
      {"substance": "337304 (antisense eT*eT*eT*eT*eA*dA*dG*d[5mC]*dT*dG*dA*dT*dA*dA*dT*eT*e[5mC]*eA*eA*e[5mC]) [compound 337304]", "% Inhib (inhibition of human STAT 3 mRNA levels)": 15},
      {"substance": "337305 (antisense e[5mC]*eT*eT*eT*eA*dA*dT*dT*dT*dT*dA*dA*dG*d[5mC]*dT*eG*eA*eT*eA*eA) [compound 337305]", "% Inhib (inhibition of human STAT 3 mRNA levels)": 25},
      {"substance": "337306 (antisense eG*e[5mC]*eA*e[5mC]*eA*d[5mC]*dT*dT*dT*dA*dA*dT*dT*dT*dT*eA*eA*eG*e[5mC]*eT) [compound 337306]", "% Inhib (inhibition of human STAT 3 mRNA levels)": 77},
      {"substance": "337307 (antisense eT*e[5mC]*eA*eA*eT*dG*d[5mC]*dA*d[5mC]*dA*d[5mC]*dT*dT*dT*dA*eA*eT*eT*eT*eT) [compound 337307]", "% Inhib (inhibition of human STAT 3 mRNA levels)": 53},
      {"substance": "337308 (antisense e[5mC]*e[5mC]*e[5mC]*eA*eG*dA*dA*dT*dG*dT*dT*dA*dA*dA*dT*eT*eT*e[5mC]*e[5mC]*eG) [compound 337308]", "% Inhib (inhibition of human STAT 3 mRNA levels)": 70},
      {"substance": "337309 (antisense eA*eG*eA*eG*eG*d[5mC]*dT*dG*d[5mC]*d[5mC]*dG*dT*dT*dG*dT*eT*eG*eG*eA*eT) [compound 337309]", "% Inhib (inhibition of human STAT 3 mRNA levels)": 73},
      {"substance": "337310 (antisense eA*eA*eG*eT*eG*dT*dT*dT*dG*dA*dA*dT*dT*d[5mC]*dT*eG*e[5mC]*eA*eG*eA) [compound 337310]", "% Inhib (inhibition of human STAT 3 mRNA levels)": 73},
      {"substance": "337311 (antisense eT*e[5mC]*eT*e[5mC]*eT*dG*d[5mC]*dT*d[5mC]*d[5mC]*d[5mC]*dT*d[5mC]*dA*dG*eG*eG*eT*e[5mC]*eA) [compound 337311]", "% Inhib (inhibition of human STAT 3 mRNA levels)": 61},
      {"substance": "337312 (antisense eA*eT*e[5mC]*eA*eG*dG*dT*dG*d[5mC]*dA*dG*d[5mC]*dT*d[5mC]*d[5mC]*eT*e[5mC]*eA*eG*eT) [compound 337312]", "% Inhib (inhibition of human STAT 3 mRNA levels)": 78},
      {"substance": "337313 (antisense eA*eG*eG*eT*eG*dA*dT*d[5mC]*dA*dG*dG*dT*dG*d[5mC]*dA*eG*e[5mC]*eT*e[5mC]*e[5mC]) [compound 337313]", "% Inhib (inhibition of human STAT 3 mRNA levels)": 61},
      {"substance": "337314 (antisense e[5mC]*eT*e[5mC]*eA*eA*dA*dG*dG*dT*dG*dA*dT*d[5mC]*dA*dG*eG*eT*eG*e[5mC]*eA) [compound 337314]", "% Inhib (inhibition of human STAT 3 mRNA levels)": 75},
      {"substance": "337315 (antisense eG*eA*eG*eG*e[5mC]*d[5mC]*dT*dT*dG*dG*dT*dG*dA*dT*dA*e[5mC]*eA*e[5mC]*e[5mC]*eT) [compound 337315]", "% Inhib (inhibition of human STAT 3 mRNA levels)": 46},
      {"substance": "337316 (antisense eT*e[5mC]*eA*eA*eT*d[5mC]*dT*dT*dG*dA*dG*dG*d[5mC]*d[5mC]*dT*eT*eG*eG*eT*eG) [compound 337316]", "% Inhib (inhibition of human STAT 3 mRNA levels)": 59},
      {"substance": "337317 (antisense e[5mC]*eT*eA*eG*eG*dT*d[5mC]*dA*dA*dT*d[5mC]*dT*dT*dG*dA*eG*eG*e[5mC]*e[5mC]*eT) [compound 337317]", "% Inhib (inhibition of human STAT 3 mRNA levels)": 55}
    ]}
  ]
}
